Experiments:
[1] = target: T1, FZD9 (Homo sapiens, UniProt O00144); assay: NanoBRET screen HiBiT-FZD9 in HEK293; assay type: binding; conditions: FZD9
T1 construct: purchased Promega (in-house HiBiT-GPCR construct library, NanoBRET)
T1 sequence (O00144 23-591): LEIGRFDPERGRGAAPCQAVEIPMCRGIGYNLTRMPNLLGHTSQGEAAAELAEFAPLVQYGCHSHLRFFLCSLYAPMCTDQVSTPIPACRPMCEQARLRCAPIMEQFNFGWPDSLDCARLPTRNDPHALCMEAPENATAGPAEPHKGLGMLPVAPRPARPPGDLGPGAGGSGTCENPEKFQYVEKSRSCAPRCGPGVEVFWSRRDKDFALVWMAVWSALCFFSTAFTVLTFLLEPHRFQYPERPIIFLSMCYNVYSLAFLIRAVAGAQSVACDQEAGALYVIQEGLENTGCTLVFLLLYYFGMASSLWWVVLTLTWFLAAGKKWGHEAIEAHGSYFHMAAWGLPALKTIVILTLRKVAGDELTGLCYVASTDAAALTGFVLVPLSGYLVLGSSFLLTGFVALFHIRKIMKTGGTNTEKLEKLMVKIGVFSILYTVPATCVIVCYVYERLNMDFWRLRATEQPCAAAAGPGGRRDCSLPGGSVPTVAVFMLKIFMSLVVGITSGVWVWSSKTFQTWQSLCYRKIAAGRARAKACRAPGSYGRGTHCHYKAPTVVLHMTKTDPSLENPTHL
Protocol: (§1) Each tracer candidate was screened across the entire library of HiBiT-GPCR constructs using NanoBRET as the detection modality. As depicted in Figure 4A, the specificity of interactions was evaluated through decrease in BRET due to competitive displacement of a bound tracer by excess parental compound. Each tracer was analyzed for binding to each HiBiT-GPCR fusion in the absence and in the presence of competing parental compound. Briefly, HEK293 cells were transfected with HiBiT-GPCR constructs diluted into promoterless DNA to reduce expression and maximize translocation to the cell surface. Each tracer candidate was then screened at concentrations of 1 μM and 0.1 μM across cells expressing these fusions. Cells were treated for 1.5 h with tracer either alone or in the presence of 20 μM competing parental compound (i.e., control). BRET was measured upon addition of purified LgBiT and subsequent complementation with HiBiT genetically fused to a GPCR. The specificity of interactions was assessed through a decrease in BRET signal due to competitive displacement of the bound tracer. To further gauge the robustness of these interactions, the fold response over the control (i.e., BRETtracer/BRETcontrol) was calculated. We chose a 1.5-fold response, which translates to ≥7-fold signal over noise as the minimal threshold required to score an interaction as positive. […]. Below we highlight the screening results obtained for our exemplary fluorescent tracers based on Clozapine, Amitriptyline and AZD1283.
(§2) HiBiT-GPCR DNA constructs were diluted in 10 mM Tris pH 8 to a final concentration of 0.01 μg/μL, arrayed in 96-well plates and stored at −20 °C. For transfection, HEK293 cells were suspended in Opti-MEM (without phenol red) supplemented with 2% fetal bovine serum (Seradigm) and 100 units/mL penicillin–streptomycin (Gibco) at a final concentration of 220,000 cells/mL and dispensed into white 96-well plates at 90 μL/well. Subsequent transfections and screens were carried using an Agilent Bravo Automated Liquid Handling Platform. First, the 96-well HiBiT DNA arrays were diluted 25-fold in Opti-MEM (without serum or phenol red) to a final concentration of 0.0004 μg/μL and 20 μL of the diluted DNAs were transferred into new 96-well plates. Next, promoterless carrier DNA (1 μg/μL) was diluted 25-fold (0.04 μg/μL) and then dispensed into the diluted arrays at 20 μL/well. Following brief mixing, Viafect transfection reagent (Promega) diluted 16-fold into Opti-MEM was dispensed into the plates at 40 μL/well. After mixing by pipetting, plates were incubated for 10 min on the pipetting station deck. The DNA-transfection reagent complexes were then added to plates containing cells. To facilitate the screen, 10 μL of DNA-transfection reagent complexes were added in duplicates to the top 4 and bottom 4 rows, resulting in two identical 48-well arrays per plate. Plates with transfected cells were incubated for 18–20 h at 37 °C/5% CO2. A screen of each tracer across the entire library using two different concentrations requires duplicate plates of transfected cells. Depending on the number of tracers being screened, transfections can be scaled up using the same ratios. The next day, for each tracer, four 20× screening solutions in tracer dilution buffer (Promega) were prepared: two duplicates at final concentration of 20 μM and two duplicates at a final concentration of 2 μM. A competing unmodified compound was added to one of each duplicate at a final concentration of 400 μM. The four resulting solutions were diluted 4-fold in Opti-MEM without serum or phenol red to generate 5× solutions (5 µM and 0.5 µM tracer +/− 100 μM competing compound). To screen the library, a BioTek MultiFlo FX liquid dispenser was used to dispense 22.5 µL of tracer solution to the top 4 rows and 22.5 µL tracer + competing compound solution to the 4 bottom rows. Plates were briefly mixed on an orbital shaker and incubated for 1.5 h at room temperature. […]

[2] = target: T2, ADORA3 (Homo sapiens, UniProt P0DMS8); assay: NanoBRET screen HiBiT-ADORA3 in HEK293; assay type: binding; conditions: ADORA3
T2 construct: purchased Promega (in-house HiBiT-GPCR construct library, NanoBRET)
T2 sequence (P0DMS8 1-318): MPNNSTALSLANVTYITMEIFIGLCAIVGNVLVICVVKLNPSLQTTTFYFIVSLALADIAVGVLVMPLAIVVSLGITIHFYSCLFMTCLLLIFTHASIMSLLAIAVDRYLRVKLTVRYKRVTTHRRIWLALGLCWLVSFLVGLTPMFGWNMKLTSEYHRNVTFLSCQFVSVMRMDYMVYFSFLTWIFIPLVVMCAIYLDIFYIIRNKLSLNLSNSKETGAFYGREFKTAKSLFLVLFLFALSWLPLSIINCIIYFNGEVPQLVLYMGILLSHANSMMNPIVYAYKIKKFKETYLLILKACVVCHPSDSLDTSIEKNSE
Protocol: as §1, §2

Compound	NanoBRET Fold Response ([1]; tracer 0.1μM)	NanoBRET Fold Response ([1]; tracer 1μM)	NanoBRET Fold Response ([2]; tracer 0.1μM)	NanoBRET Fold Response ([2]; tracer 1μM)
Cc1nc2n(c(=O)c1CCN1CCC(c3noc4cc(F)ccc34)CC1)CCCC2OC(=O)NCCOCCOCCOCCOCCNC(=O)CCc1ccc2n1[B-](F)(F)[N+]1=C(c3ccc[nH]3)C=CC1=C2 (stereo not shown) [Risperidone-2-NB590]	1.00	0.99	1.03	0.87
CC(C)N(CC[C@H](c1ccccc1)c1cc(CCNC(=O)CCOCCOCCOCCOCCNC(=O)CCc2ccc3n2[B-](F)(F)[N+]2=C(c4ccc[nH]4)C=CC2=C3)ccc1O)C(C)C [Tolterodine-2-NB590]	0.96	0.85	1.12	1.00
CC(C)N(CC[C@H](c1ccccc1)c1cc(CCNC(=O)c2ccc(CNC(=O)CCc3ccc4n3[B-](F)(F)[N+]3=C(c5ccc[nH]5)C=CC3=C4)cc2)ccc1O)C(C)C [Tolterodine-BZ-NB590]	0.95	1.04	0.58	0.71
CCCn1c(=O)c2[nH]c(-c3ccc(OCC(=O)NCCNC(=O)CCOCCNC(=O)c4ccc(CNC(=O)CCc5ccc6n5[B-](F)(F)[N+]5=C(c7ccc[nH]7)C=CC5=C6)cc4)cc3)nc2n(CCC)c1=O [XAC-3-NB590]	1.00	1.07	12.13	6.72

From PMC8151276, “An Integrated Approach toward NanoBRET Tracers for Analysis of GPCR Ligand Engagement” (Molecules, 2021)
